From ChEMBL document CHEMBL1147682, “New 4-(4-methyl-phenyl)phthalazin-1(2H)-one derivatives and their effects on alpha1-receptors” (Bioorg Med Chem Lett, 2006)

What was measured:
Format in all cases: tissue-based
[1] = molecular target: T1, Serotonin 1a (5-HT1a) receptor/Adrenergic receptor alpha-1 (Rattus norvegicus) (UniProt P15823+P23944+P43140+P19327); experiment: Selectivity for alpha-1 adrenergic receptor over 5HT1A serotonergic receptor in rat cerebral cortex
[2] = molecular target: T2, 5-hydroxytryptamine receptor 1A (Rattus norvegicus, UniProt P19327); experiment: Displacement of [3H]8-OH-DPAT from 5HT1A serotonergic receptor in rat cerebral cortex
T2 sequence (P19327 whole entry): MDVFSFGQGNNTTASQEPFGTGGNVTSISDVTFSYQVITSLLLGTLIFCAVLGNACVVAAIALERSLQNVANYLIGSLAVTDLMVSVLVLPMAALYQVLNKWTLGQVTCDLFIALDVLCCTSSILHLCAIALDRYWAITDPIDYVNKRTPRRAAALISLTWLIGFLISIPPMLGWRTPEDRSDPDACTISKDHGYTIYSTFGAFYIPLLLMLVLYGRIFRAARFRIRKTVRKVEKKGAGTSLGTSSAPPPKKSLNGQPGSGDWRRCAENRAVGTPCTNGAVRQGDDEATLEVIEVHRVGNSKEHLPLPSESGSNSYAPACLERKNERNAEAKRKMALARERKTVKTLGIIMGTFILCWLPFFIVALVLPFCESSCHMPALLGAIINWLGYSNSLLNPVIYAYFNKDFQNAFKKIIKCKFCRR

[3] = molecular target: T3, Adrenergic receptor alpha-1 (Rattus norvegicus, UniProt P15823+P23944+P43140); experiment: Displacement of [3H]prazosin from alpha-1 adrenergic receptor in rat cerebral cortex
T3 sequence (P15823 whole entry): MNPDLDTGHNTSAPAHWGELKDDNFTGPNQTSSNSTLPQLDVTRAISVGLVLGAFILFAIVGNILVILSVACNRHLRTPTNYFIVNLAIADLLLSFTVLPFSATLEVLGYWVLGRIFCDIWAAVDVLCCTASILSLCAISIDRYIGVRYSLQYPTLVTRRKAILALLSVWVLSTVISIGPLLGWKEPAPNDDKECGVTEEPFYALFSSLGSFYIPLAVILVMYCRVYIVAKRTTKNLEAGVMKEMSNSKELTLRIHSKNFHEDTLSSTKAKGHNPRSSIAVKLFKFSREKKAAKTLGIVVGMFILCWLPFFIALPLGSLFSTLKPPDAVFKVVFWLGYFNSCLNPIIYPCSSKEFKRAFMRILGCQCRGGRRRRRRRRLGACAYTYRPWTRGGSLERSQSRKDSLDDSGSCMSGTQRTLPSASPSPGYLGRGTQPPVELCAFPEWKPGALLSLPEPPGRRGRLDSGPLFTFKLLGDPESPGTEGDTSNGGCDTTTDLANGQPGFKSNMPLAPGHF
T3 sequence (P23944 whole entry): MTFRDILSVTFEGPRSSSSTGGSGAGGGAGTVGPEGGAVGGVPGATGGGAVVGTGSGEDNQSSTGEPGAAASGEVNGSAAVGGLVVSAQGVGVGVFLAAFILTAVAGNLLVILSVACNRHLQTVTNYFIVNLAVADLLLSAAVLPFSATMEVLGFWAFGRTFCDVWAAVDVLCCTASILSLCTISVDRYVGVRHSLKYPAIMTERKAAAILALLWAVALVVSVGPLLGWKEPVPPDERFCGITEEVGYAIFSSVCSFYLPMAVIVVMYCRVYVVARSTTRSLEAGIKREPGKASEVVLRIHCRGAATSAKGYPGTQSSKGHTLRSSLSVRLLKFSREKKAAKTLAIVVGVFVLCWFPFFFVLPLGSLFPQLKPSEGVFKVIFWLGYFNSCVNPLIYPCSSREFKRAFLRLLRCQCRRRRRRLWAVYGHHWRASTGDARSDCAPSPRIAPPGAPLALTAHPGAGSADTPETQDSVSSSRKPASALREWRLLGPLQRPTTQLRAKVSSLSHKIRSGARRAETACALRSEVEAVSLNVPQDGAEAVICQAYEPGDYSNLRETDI
T3 sequence (P43140 whole entry): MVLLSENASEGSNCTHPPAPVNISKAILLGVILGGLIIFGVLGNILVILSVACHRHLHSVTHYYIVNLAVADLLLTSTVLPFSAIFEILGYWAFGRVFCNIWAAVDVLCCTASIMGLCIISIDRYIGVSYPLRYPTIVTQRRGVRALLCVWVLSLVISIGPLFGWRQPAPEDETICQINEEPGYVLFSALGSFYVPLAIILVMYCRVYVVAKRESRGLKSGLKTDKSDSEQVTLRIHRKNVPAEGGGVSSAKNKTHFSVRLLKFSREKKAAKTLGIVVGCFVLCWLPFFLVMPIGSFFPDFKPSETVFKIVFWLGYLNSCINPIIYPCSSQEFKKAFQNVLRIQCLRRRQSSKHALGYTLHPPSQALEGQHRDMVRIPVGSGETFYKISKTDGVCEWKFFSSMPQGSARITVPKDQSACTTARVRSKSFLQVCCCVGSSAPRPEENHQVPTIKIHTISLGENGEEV

[4] = molecular target: T4, Adrenergic receptor alpha-2 (Rattus norvegicus, UniProt P22086+P19328+P22909); experiment: Displacement of [3H]rauwolscine from alpha-2 adrenergic receptor in rat cerebral cortex
T4 sequence (P22086 whole entry): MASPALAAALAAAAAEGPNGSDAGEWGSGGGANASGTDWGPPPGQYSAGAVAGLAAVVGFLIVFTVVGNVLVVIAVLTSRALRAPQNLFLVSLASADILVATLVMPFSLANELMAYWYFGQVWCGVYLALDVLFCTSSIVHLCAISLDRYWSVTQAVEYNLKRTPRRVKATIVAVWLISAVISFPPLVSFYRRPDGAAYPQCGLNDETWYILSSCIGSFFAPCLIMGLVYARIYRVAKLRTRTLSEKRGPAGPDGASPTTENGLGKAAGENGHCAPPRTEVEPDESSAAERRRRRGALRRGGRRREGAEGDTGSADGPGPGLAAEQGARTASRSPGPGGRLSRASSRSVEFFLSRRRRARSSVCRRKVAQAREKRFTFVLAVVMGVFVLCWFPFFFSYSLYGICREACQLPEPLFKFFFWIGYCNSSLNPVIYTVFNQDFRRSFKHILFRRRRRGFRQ
T4 sequence (P19328 whole entry): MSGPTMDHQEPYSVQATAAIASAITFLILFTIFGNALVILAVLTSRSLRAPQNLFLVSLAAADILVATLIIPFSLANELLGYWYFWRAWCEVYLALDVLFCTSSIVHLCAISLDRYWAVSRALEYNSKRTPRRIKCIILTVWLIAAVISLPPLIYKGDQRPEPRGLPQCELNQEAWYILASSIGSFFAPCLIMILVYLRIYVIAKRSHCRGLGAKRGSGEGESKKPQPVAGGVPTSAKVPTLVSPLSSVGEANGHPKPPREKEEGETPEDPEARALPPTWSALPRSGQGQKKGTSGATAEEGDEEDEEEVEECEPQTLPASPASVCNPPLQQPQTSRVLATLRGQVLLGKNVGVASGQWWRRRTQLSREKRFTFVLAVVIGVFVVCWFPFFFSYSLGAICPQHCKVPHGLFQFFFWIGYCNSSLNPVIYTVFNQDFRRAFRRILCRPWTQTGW
T4 sequence (P22909 whole entry): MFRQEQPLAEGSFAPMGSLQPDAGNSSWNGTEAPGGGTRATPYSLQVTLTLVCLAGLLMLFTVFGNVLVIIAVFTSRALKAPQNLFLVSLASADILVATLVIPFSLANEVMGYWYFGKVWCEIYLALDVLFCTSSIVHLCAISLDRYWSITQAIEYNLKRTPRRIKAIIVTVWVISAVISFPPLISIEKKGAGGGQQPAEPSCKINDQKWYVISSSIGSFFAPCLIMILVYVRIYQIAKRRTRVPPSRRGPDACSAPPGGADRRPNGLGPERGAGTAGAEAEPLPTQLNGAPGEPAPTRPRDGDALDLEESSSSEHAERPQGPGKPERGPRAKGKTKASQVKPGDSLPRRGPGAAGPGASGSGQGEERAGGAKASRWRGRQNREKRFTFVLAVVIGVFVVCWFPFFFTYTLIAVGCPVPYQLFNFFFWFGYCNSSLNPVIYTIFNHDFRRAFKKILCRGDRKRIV

[5] = molecular target: T1, Serotonin 1a (5-HT1a) receptor/Adrenergic receptor alpha-1 (Rattus norvegicus); experiment: Selectivity for 5HT1A serotonergic receptor over alpha1 adrenergic receptor in rat cerebral cortex
[6] = molecular target: T5, 5-hydroxytryptamine receptor 1A (Rattus norvegicus) (UniProt P19327); experiment: Displacement of [3H]8-OH-DPAT from 5HT1A serotonergic receptor in rat cerebral cortex at 10 uM
T5 sequence (whole entry): T2 sequence (P19327 whole entry)

[7] = molecular target: Adrenergic receptor alpha-2 (Rattus norvegicus) (UniProt P22086+P19328+P22909); experiment: Displacement of [3H]rauwolscine from alpha-2 adrenergic receptor in rat cerebral cortex at 10 uM
[8] = molecular target: Adrenergic receptor alpha-1 (Rattus norvegicus) (UniProt P15823+P23944+P43140); experiment: Displacement of [3H]prazosin from alpha-1 adrenergic receptor in rat cerebral cortex at 10 uM

Row | Structure (SMILES) | Ratio Ki [1] | Ki [2] [nM] | Ki [3] [nM] | Ki [4] [nM] | Ratio Ki [5] | inhibition [6] [%] | inhibition [7] [%] | inhibition [8] [%]
1 | Cc1ccc(-c2nn(CCCCCCCN3CCN(c4cccc(Cl)c4)CC3)c(=O)c3ccccc23)cc1 | 18.2 | 673 | 37 | 430 | – | – | – | –
2 | COc1ccccc1N1CCN(CCCCCCCn2nc(-c3ccc(C)cc3)c3ccccc3c2=O)CC1 | 12 | 101 | 8.4 | 105 | – | – | – | –
3 | Cc1ccc(-c2nn(CCCCN3CCN(CC4COc5ccccc5O4)CC3)c(=O)c3ccccc23)cc1 (configuration not stated) | 10.7 | 1930 | 180 | 278 | – | – | – | –
4 | Cc1ccc(-c2nn(CCCCN3CCN(c4cccc(Cl)c4)CC3)c(=O)c3ccccc23)cc1 | 9.3 | 116 | 12.4 | 178.2 | – | – | – | –
5 | Cc1ccc(-c2nn(CCN3CCN(c4ccccc4OC(C)C)CC3)c(=O)c3ccccc23)cc1 | 258 | 1290 | 5 | 1301 | – | – | – | –
6 | Cc1ccc(-c2nn(CCCCN3CCN(c4ccccc4OC(C)C)CC3)c(=O)c3ccccc23)cc1 | 75.7 | 81 | 1.07 | 96 | – | – | – | –
7 | COc1ccccc1N1CCN(CCCCn2nc(-c3ccc(C)cc3)c3ccccc3c2=O)CC1 | 14.8 | 38.5 | 2.6 | 60.37 | – | – | – | –
8 | Cc1ccc(-c2nn(CCCCN3CCN(c4ncccn4)CC3)c(=O)c3ccccc23)cc1 | 4.4 | 1180 | 270 | 2034 | – | – | – | –
9 | COc1ccccc1N1CCN(CCn2nc(-c3ccc(C)cc3)c3ccccc3c2=O)CC1 | 135 | 473 | 3.5 | 578 | – | – | – | –
10 | CCOc1ccccc1N1CCN(CCCCCCCn2nc(-c3ccc(C)cc3)c3ccccc3c2=O)CC1 | 28.2 | 207 | 7.33 | 889 | – | – | – | –
11 | Cc1ccc(-c2nn(CCCCN3CCN(c4cccc(C(F)(F)F)c4)CC3)c(=O)c3ccccc23)cc1 | – | 71.8 | 111.6 | 186.5 | 1.5 | – | – | –
12 | Cc1ccc(-c2nn(CCCCCCCN3CCN(c4cccc(C(F)(F)F)c4)CC3)c(=O)c3ccccc23)cc1 | 1.9 | 722 | 382 | 4180 | – | – | – | –
13 | Cc1ccc(-c2nn(CCN3CCN(c4ccccc4)CC3)c(=O)c3ccccc23)cc1 | 245 | 6200 | 25.3 | 4262 | – | – | – | –
14 | CCOc1ccccc1N1CCN(CCCCn2nc(-c3ccc(C)cc3)c3ccccc3c2=O)CC1 | 18.3 | 41 | 2.23 | 60.47 | – | – | – | –
15 | CCOc1ccccc1N1CCN(CCn2nc(-c3ccc(C)cc3)c3ccccc3c2=O)CC1 | 244 | 951 | 3.9 | 867 | – | – | – | –
16 | Cc1ccc(-c2nn(CCCCCCCn3ncc4ccccc4c3=O)c(=O)c3ccccc23)cc1 | – | – | – | – | – | 10 | 15 | 26
17 | Cc1ccc(-c2nn(CCCCN3CCN(c4ccccc4)CC3)c(=O)c3ccccc23)cc1 | 18.8 | 450 | 23.9 | 186 | – | – | – | –
